Numbered stars: 1 amine (or outer) side, 2 acyl side, 3 side chain; on linkers, the order of the positions; unused ones are H or OH. Square brackets hold non-standard residues; d marks the D form. Side chains are listed from the residue outwards. Peptide text beside a SMILES is read from it. * marks the point of attachment. C18 diacid = O=C(O)CCCCCCCCCCCCCCCCC(=O)*; αMePhe(2-F) = C[C@](N)(Cc1ccccc1F)C(=O)O; γGlu = O=C(O)[C@H](CCC(=O)[*:2])N[*:1]; AEEA = NCCOCCOCC(=O)O; Aib = CC(C)(N)C(=O)O
Tests used:
[1] = target: T1, human GIP receptor (Homo sapiens, UniProt P48546); experiment: [125I]-GIP binding (SPA), human GIP receptor; details: read-out: hGIPR Ki, nM (SEM, n)
T1 construct: expressed in transfected cells; crude membranes
T1 sequence (P48546 22-466): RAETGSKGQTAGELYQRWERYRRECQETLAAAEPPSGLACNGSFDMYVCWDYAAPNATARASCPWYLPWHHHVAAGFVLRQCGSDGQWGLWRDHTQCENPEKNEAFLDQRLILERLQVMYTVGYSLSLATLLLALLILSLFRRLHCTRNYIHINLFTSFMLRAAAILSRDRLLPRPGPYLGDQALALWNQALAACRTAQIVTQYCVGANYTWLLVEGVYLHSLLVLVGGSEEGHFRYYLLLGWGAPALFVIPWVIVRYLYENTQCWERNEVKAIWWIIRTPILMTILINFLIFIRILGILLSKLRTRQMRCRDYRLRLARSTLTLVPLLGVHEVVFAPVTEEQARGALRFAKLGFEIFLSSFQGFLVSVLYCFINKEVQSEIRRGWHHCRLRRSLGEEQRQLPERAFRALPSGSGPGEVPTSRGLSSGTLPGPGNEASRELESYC

[2] = target: human GLP-1 receptor (GLP-1R) (Homo sapiens, UniProt P43220); experiment: cAMP pharmacological functional assay in presence of casein, hGLP-1R; assay type: cell-based; details: HEK293 cells expressing hGLP-1R, 0.1% Casein, geometric mean; read-out: hGLP1R cAMP Rel EC50 nM (SEM, n)
human GLP-1 receptor (GLP-1R), sequence (P43220 24-463): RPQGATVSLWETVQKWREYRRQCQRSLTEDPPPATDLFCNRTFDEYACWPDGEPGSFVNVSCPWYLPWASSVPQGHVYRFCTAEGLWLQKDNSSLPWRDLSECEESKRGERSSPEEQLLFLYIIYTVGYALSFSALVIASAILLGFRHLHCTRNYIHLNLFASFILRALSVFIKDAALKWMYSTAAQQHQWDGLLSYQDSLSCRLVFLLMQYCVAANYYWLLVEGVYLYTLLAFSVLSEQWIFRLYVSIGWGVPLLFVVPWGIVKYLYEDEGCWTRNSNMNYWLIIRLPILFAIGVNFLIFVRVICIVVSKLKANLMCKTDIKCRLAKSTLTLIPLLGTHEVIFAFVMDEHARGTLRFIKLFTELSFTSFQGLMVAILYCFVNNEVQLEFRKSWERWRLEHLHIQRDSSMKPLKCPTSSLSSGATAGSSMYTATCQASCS

[3] = target: T2, human Gcg receptor (Homo sapiens, UniProt P47871); experiment: [125I]-Glucagon binding (SPA), human Gcg receptor; details: read-out: hGLcgR Ki, nM (SEM, n)
T2 construct: expressed in transfected cells; crude membranes
T2 sequence (P47871 26-477): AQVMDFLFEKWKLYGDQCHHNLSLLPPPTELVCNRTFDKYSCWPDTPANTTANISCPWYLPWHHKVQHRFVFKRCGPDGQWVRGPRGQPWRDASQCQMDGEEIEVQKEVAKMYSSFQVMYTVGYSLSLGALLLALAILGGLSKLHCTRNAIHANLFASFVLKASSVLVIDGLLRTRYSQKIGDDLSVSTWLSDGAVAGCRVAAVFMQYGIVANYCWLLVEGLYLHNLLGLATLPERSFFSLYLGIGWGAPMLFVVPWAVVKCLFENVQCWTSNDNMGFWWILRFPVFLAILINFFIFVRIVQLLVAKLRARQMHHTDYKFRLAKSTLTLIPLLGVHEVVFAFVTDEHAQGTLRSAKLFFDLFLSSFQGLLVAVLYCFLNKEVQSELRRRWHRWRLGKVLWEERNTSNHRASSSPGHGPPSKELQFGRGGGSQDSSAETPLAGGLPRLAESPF
How it was run: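 Cell pellets were lysed in hypotonic Tris buffer, pH 7.5, homogenized, and spun at low then high speed to give crude membranes. Ki was derived from the fitted IC50.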

[4] = target: T3, gastric inhibitory peptide receptor (GIPR) (Homo sapiens, UniProt P48546); experiment: cAMP pharmacological functional assay in presence of casein, hGIPR; assay type: cell-based; details: HEK293 cells expressing hGIPR, 0.1% Casein, geometric mean; read-out: hGIPR cAMP Rel EC50 nM (SEM, n)
T3 sequence (P48546 22-466): T1 sequence (P48546 22-466)

[5] = target: human GLP-1R (Homo sapiens, UniProt P43220); experiment: [125I]-GLP-1 binding (SPA), human GLP-1 receptor; set-up: expressed in transfected cells; crude membranes; details: read-out: hGLP1R Ki, (nM) (SEM, n)
human GLP-1R, sequence (P43220 24-463): as the sequence (P43220 24-463) above
How it was run: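 Ki values are geometric means with SEM over independent replicates on different days, derived from IC50s fitted by four-parameter nonlinear regression. The assay used crude cell membranes in HEPES buffer, pH 7.4, containing CaCl2, MgCl2, bacitracin and TWEEN-20.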

SMILES	Ki [1]	EC50 [2]	Ki [3]	EC50 [4]	Ki [5]
CC[C@H](C)[C@H](NC(=O)[C@H](CC(C)C)NC(=O)[C@H](Cc1ccc(O)cc1)NC(=O)[C@H](CCC(=O)O)NC(=O)[C@@H](NC(=O)[C@H](Cc1ccccc1)NC(=O)[C@H](CC(=O)O)NC(=O)C(C)(C)NC(=O)[C@H](CCC(N)=O)NC(=O)[C@H](C)NC(=O)[C@H](CCCCNC(=O)COCCOCCNC(=O)COCCOCCNC(=O)CC[C@H](NC(=O)CCCCCCCCCCCCCCCCC(=O)O)C(=O)O)NC(=O)[C@H](CCCCN)NC(=O)[C@H](CC(=O)O)NC(=O)[C@H](CC(C)C)NC(=O)[C@H](CC(C)C)NC(=O)[C@@H](NC(=O)[C@H](CO)NC(=O)[C@H](Cc1ccc(O)cc1)NC(=O)[C@H](CC(=O)O)NC(=O)[C@H](CO)NC(=O)[C@@H](NC(=O)[C@H](Cc1ccccc1)NC(=O)[C@@H](NC(=O)CNC(=O)[C@H](CCC(=O)O)NC(=O)C(C)(C)NC(=O)[C@@H](N)Cc1ccc(O)cc1)[C@@H](C)O)[C@@H](C)O)[C@@H](C)CC)[C@@H](C)CC)C(=O)N[C@@H](CCC(=O)O)C(=O)NCC(=O)NCC(=O)N1CCC[C@H]1C(=O)N[C@@H](CO)C(=O)N[C@@H](CO)C(=O)NCC(N)=O [Example 320] (H-Y[Aib]EGTFTSDYSILLDKK([AEEA-AEEA-γGlu-C18 diacid])AQ[Aib]DFIEYLIEGGPSSG-NH2; N-terminus assumed)	0.136 nM	0.397 nM	> 1040 nM	0.161 nM	5.17 nM
CC[C@H](C)[C@H](NC(=O)[C@H](CC(C)C)NC(=O)[C@H](Cc1ccc(O)cc1)NC(=O)[C@H](CCC(=O)O)NC(=O)[C@@H](NC(=O)[C@H](Cc1ccccc1)NC(=O)[C@H](Cc1c[nH]cn1)NC(=O)C(C)(C)NC(=O)[C@H](CCC(N)=O)NC(=O)[C@H](C)NC(=O)[C@H](CCCCNC(=O)COCCOCCNC(=O)COCCOCCNC(=O)CC[C@H](NC(=O)CCCCCCCCCCCCCCCCC(=O)O)C(=O)O)NC(=O)[C@H](CCCCN)NC(=O)[C@H](CC(=O)O)NC(=O)[C@H](CC(C)C)NC(=O)[C@H](CC(C)C)NC(=O)[C@@H](NC(=O)[C@H](CO)NC(=O)[C@H](Cc1ccc(O)cc1)NC(=O)[C@H](CC(=O)O)NC(=O)[C@H](CO)NC(=O)[C@@H](NC(=O)[C@H](Cc1ccccc1)NC(=O)[C@@H](NC(=O)CNC(=O)[C@H](CCC(=O)O)NC(=O)C(C)(C)NC(=O)[C@@H](N)Cc1ccc(O)cc1)[C@@H](C)O)[C@@H](C)O)[C@@H](C)CC)[C@@H](C)CC)C(=O)N[C@@H](CCC(=O)O)C(=O)NCC(=O)NCC(=O)N1CCC[C@H]1C(=O)N[C@@H](CO)C(=O)N[C@@H](CO)C(=O)NCC(N)=O [Example 322] (H-Y[Aib]EGTFTSDYSILLDKK([AEEA-AEEA-γGlu-C18 diacid])AQ[Aib]HFIEYLIEGGPSSG-NH2)	0.175 nM	0.711 nM	1030 nM	0.146 nM	2.31 nM

The next compounds have a lower Ki [1] than those just listed; values first:

Ki [1]	EC50 [2]	Ki [3]	EC50 [4]	Ki [5]	SMILES
0.0261 nM	0.0388 nM	27.6 nM	0.0233 nM	0.815 nM	CC[C@H](C)[C@H](NC(=O)[C@H](CC(C)C)NC(=O)[C@H](Cc1ccc(O)cc1)NC(=O)[C@H](CCC(=O)O)NC(=O)[C@@H](NC(=O)[C@H](Cc1ccccc1)NC(=O)[C@H](C)NC(=O)C(C)(C)NC(=O)[C@H](CCC(N)=O)NC(=O)[C@H](C)NC(=O)[C@H](CCCCNC(=O)COCCOCCNC(=O)COCCOCCNC(=O)CC[C@H](NC(=O)CCCCCCCCCCCCCCCCC(=O)O)C(=O)O)NC(=O)[C@H](CCCCN)NC(=O)[C@H](CC(=O)O)NC(=O)[C@H](CC(C)C)NC(=O)[C@H](CC(C)C)NC(=O)[C@@H](NC(=O)[C@H](CO)NC(=O)[C@H](Cc1ccc(O)cc1)NC(=O)[C@H](CC(=O)O)NC(=O)[C@H](CO)NC(=O)[C@@H](NC(=O)[C@](C)(Cc1ccccc1F)NC(=O)[C@@H](NC(=O)CNC(=O)[C@H](CCC(=O)O)NC(=O)C(C)(C)NC(=O)[C@@H](N)Cc1ccc(O)cc1)[C@@H](C)O)[C@@H](C)O)[C@@H](C)CC)[C@@H](C)CC)C(=O)N[C@@H](C)C(=O)NCC(=O)NCC(=O)N1CCC[C@H]1C(=O)N[C@@H](CO)C(=O)N[C@@H](CO)C(=O)NCC(N)=O [Example 313] (H-Y[Aib]EGT[αMePhe(2-F)]TSDYSILLDKK([AEEA-AEEA-γGlu-C18 diacid])AQ[Aib]AFIEYLIAGGPSSG-NH2)
0.027 nM	0.029 nM	116 nM	0.029 nM	0.717 nM	CC[C@H](C)[C@H](NC(=O)[C@H](CC(C)C)NC(=O)[C@H](Cc1ccc(O)cc1)NC(=O)[C@H](CCC(=O)O)NC(=O)[C@@H](NC(=O)[C@H](Cc1ccccc1)NC(=O)[C@H](CCC(=O)O)NC(=O)C(C)(C)NC(=O)[C@H](CCC(N)=O)NC(=O)[C@H](C)NC(=O)[C@H](CCCCNC(=O)COCCOCCNC(=O)COCCOCCNC(=O)CC[C@H](NC(=O)CCCCCCCCCCCCCCCCC(=O)O)C(=O)O)NC(=O)[C@H](CCCCN)NC(=O)[C@H](CC(=O)O)NC(=O)[C@H](CC(C)C)NC(=O)[C@H](CC(C)C)NC(=O)[C@@H](NC(=O)[C@H](CO)NC(=O)[C@H](Cc1ccc(O)cc1)NC(=O)[C@H](CC(=O)O)NC(=O)[C@H](CO)NC(=O)[C@@H](NC(=O)[C@](C)(Cc1ccccc1F)NC(=O)[C@@H](NC(=O)CNC(=O)[C@H](CCC(=O)O)NC(=O)C(C)(C)NC(=O)[C@@H](N)Cc1ccc(O)cc1)[C@@H](C)O)[C@@H](C)O)[C@@H](C)CC)[C@@H](C)CC)C(=O)N[C@@H](C)C(=O)NCC(=O)NCC(=O)N1CCC[C@H]1C(=O)N[C@@H](CO)C(=O)N[C@@H](CO)C(=O)NCC(N)=O [Example 314] (H-Y[Aib]EGT[αMePhe(2-F)]TSDYSILLDKK([AEEA-AEEA-γGlu-C18 diacid])AQ[Aib]EFIEYLIAGGPSSG-NH2)
0.064 nM	0.204 nM	770 nM	0.0752 nM	4.2 nM	CC[C@H](C)[C@H](NC(=O)[C@H](CC(C)C)NC(=O)[C@H](Cc1ccc(O)cc1)NC(=O)[C@H](CCC(=O)O)NC(=O)[C@@H](NC(=O)[C@H](Cc1ccccc1)NC(=O)[C@@H](NC(=O)C(C)(C)NC(=O)[C@H](CCC(N)=O)NC(=O)[C@H](C)NC(=O)[C@H](CCCCNC(=O)COCCOCCNC(=O)COCCOCCNC(=O)CC[C@H](NC(=O)CCCCCCCCCCCCCCCCC(=O)O)C(=O)O)NC(=O)[C@H](CCCCN)NC(=O)[C@H](CC(=O)O)NC(=O)[C@H](CC(C)C)NC(=O)[C@H](CC(C)C)NC(=O)[C@@H](NC(=O)[C@H](CO)NC(=O)[C@H](Cc1ccc(O)cc1)NC(=O)[C@H](CC(=O)O)NC(=O)[C@H](CO)NC(=O)[C@@H](NC(=O)[C@H](Cc1ccccc1)NC(=O)[C@@H](NC(=O)CNC(=O)[C@H](CCC(=O)O)NC(=O)C(C)(C)NC(=O)[C@@H](N)Cc1ccc(O)cc1)[C@@H](C)O)[C@@H](C)O)[C@@H](C)CC)[C@@H](C)O)[C@@H](C)CC)C(=O)N[C@@H](CCC(=O)O)C(=O)NCC(=O)NCC(=O)N1CCC[C@H]1C(=O)N[C@@H](CO)C(=O)N[C@@H](CO)C(=O)NCC(N)=O [Example 321] (H-Y[Aib]EGTFTSDYSILLDKK([AEEA-AEEA-γGlu-C18 diacid])AQ[Aib]TFIEYLIEGGPSSG-NH2)

— US12252524B2, “GIP/GLP1 co-agonist compounds” (Eli Lilly and Company, priority 2018, dated 2025)
